Assay results taken from patent US9820483B2, “Microbial composition” (Rohm and Haas Company, priority 2011, dated 2017).

Experiments:
[1] = system: Escherichia coli (E. coli—ATCC #10536); assay: Automated assessment of efficacy in model surfactant base (2.85% sodium cocoyl glycinate + 1.85% sodium lauroamphoacetate, pH 10), 15 seconds exposure, delta OD450/OD590 in D/E quench; type: cell-based
Method: Solutions were prepared such that the concentrations of the surfactant components and test actives were 1.1× the final desired concentration in order to allow for dilution with the bacterial inoculum in the test. The solutions were manually adjusted to pH 10.0 by dropwise addition of sodium hydroxide solution, as measured with a pH meter at ambient temperature.
Tests were conducted using standard microtiter plate assays using an automated liquid handling system. 270 μl of the surfactant test solution was pipetted into each well of the microtitre plate and 30 μl of the bacterial suspension was then added. After exactly 15 seconds of bacterial exposure, a 30 μl volume of bacterial cells was withdrawn and transferred to 270 μl of D/E quench solution. After 5 minutes in the D/E quench, the optical density (OD) was measured for each plate in turn at two specific wavelengths (450 nm and 590 nm). These provide a dual check of antimicrobial activity, as the OD450 reading is specific for the yellow colour of D/E quench when bacterial growth is observed, whereas OD590 is specific for the initial purple colour of the D/E quench which is retained if no bacterial growth is observed. After the time zero OD measurements, plates were then incubated at 37° C. overnight (16 hours) before repeating the OD measurements. Delta OD values were calculated by subtracting […]. Bacterial growth is observed as an increase in OD450 and a decrease in ΔOD590. To identify antibacterially efficacious systems (those preventing appreciable bacterial growth after incubation), the following threshold changes in OD readings have been adopted: if (1). OD450 increases by less than 0.2 absorbance unit on incubation and (2). OD590 decreases by less than 0.35 unit on incubation. Conversely, where OD450 increases by more than 0.2 AU and OD590 decreases by more than 0.35 unit after incubation, corresponding to a colour shift from purple to yellow, the test system allows bacterial growth and is not deemed efficacious. Four replicate measurements in the same plate have been made for each test system. The number of replicate wells showing either bacterial growth or no growth is also readily assessed by eye by following the colour change.
Dose responses for individual components and binary mixtures of actives at a fixed concentration ratio were generated by sequential dilution of liquors with further surfactant solution to obtain a series of endpoints.
In some selected cases, the combinations were also tested at the weight ratio 1:1.
The method used was the same as in the above Table.

S. aureus ATCC 6538 = assay: Synergy of terpinyl alcohols with phenolic compounds in water, 15 seconds contact, plate count log reduction; type: cell-based, Staphylococcus aureus; details: […] alone
Method: Liquid actives were used directly. Solid actives were dissolved in alcohol and a 50% stock was made.
The culture was grown overnight in Tryptone soya agar. It was suspended in saline (0.85% NaCl) to a con. of 1.5×10^8-5×10^8 cells/ml
To 9 ml water the actives were added to give the desired concentration. 1 ml of the culture was added and mixed. After 15 seconds contact 1 ml aliquot was removed and added to a neutraliser and kept for 5 minutes. A control of untreated cells was similarly processed. It was then diluted and plated. The plates were incubated at 37° C. for 24 hours. The colonies on the plates were counted. The counts were converted to log10. The log. no. of survivors was determined and log reduction calculated.

[2] = system: Staphylococcus aureus (10788 strain); assay: Antimicrobial efficacy of actives against S. aureus in water, 15 seconds contact, NMBS; type: cell-based
Method: Selected materials were also tested against a representative Gram positive Staphylococcus aureus.
The following assay describes the testing of 8 materials using 6 dilutions across half of a 96-well micro titre plate (MTP). Using this approach it is possible to assay 16 actives (without replicates) with one full dilution plate, replicating this set up in two halves of the plate columns, 1-6 and 7-12.
Bacterial stock (30 μl) was then added to the prepared 270 μl of the solution of actives in the Screening Plate and mixed, using a multichannel pipette with 8 tips to aspirate and dispense the same volume of bacterial stock in parallel to 8 wells in rows A-H. After a contact time of 15 seconds, the mixtures were quenched by transferring 30 μl volumes of the mixtures into the 270 μl D/E neutralising solution in the prepared dilution plate, using aspiration to mix. After exactly 5 minutes in the D/E neutralising solution, […] were transferred from column 1 to column 2 of the Dilution MTP and mixed, before transferring further 30 μl volumes from column 2 into column 3. This process was repeated serially diluting the bacteria across the plate to column 6.
30 μl volumes from each well in the Dilution MTP were transferred onto pre-labelled segment of Tryptone Soya Agar (TSA) plates starting from the lowest bacterial concentration (highest dilution, column 6) to the highest bacterial concentration (column 1). The TSA plates were allowed to stand for ca. 2 hours so that the 30 μl inocula spots could dry and the plates were then inverted and incubated overnight at 37° C. before enumerating the bacterial colonies at the labelled dilutions to determine the effects of the actives on bacterial growth.
Mean bacterial survival numbers NMBS (expressed in Log CFU/ml) are obtained by first determining the segment of the TSA plate where the number of bacterial colonies is countable. From the colony number in this segment. NMBS is calculated by the formula: NMBS=log {Ncol·10^DF·100/3} Here, Ncol is the colony count, and DF is the dilution factor taken from the MTP-well corresponding to the TSA plate segment (i.e. DF may range from 1 for the quench, to 6 for the highest dilution). The factor 100/3 is a conversion factor from the volume of the inocula spot to one milliliter.
Every assay test was performed in triplicate.
Thus, a value of NMBS as of about 7 corresponds to a count of about […] from the fifth dilution well, i.e. with DF=5. Such a count of about 7 is generally observed when bacteria are exposed to non-biocidal materials. In case no surviving colonies are observed in any segment of the TSA plate, this is interpreted as complete kill and a value of NMBS=0 is reported.
S. aureus Bacterial stock was prepared as shown below and the antibacterial efficacy of the active was carried out as explained earlier for E. Coli.
An overnight culture of Staphylococcus aureus (10788 strain) was inoculated onto a Tripticase Soy Agar (TSA) plate and grown for ca. 18 hrs at 37° C. The culture of S. aureus was washed from the plate using sterile saline (0.85% NaCl) solution and a sterile spreader and suspended in 50 ml saline. This suspension was separated into equal volumes and centrifuged at 4000 rpm for 15 minutes. Following centrifugation the pellet was re-suspended in saline to give a final concentration of 0.35 OD620 equivalent to about 10^8 cells per milliliter for this particular organism. Here. OD620 indicates the absorbance of a sample in a cuvette of 1.0 cm path length at a wavelength of 620 nm. This bacterial stock was used for assaying against antimicrobial actives (in triplicate).

With `C=C(C)C1CCC(C)C(O)C1` (stereo not shown) [2-methyl-5-(prop-1-en-2-yl)cyclohexanol] the MBC ([1]; Escherichia coli, ATCC10536, 15 s, in 2.85% sodium cocoyl glycinate + 1.85% sodium lauroamphoacetate solution at pH 10, E. coli, read-out: MBC) was 4000 µg/mL, the “No. of replicates showing growth (out of 4)” value ([1]; single active at 0.3% w/v) was 4 and the “Δ OD 590 nm = OD590 (time = 16 hours) − OD590 (time zero), Mean” value (shortened to “Δ OD 590 nm = OD590”) ([1]; single active at 0.3% w/v) was 0.66. For the same compound, the “ΔOD 450 nm = OD450 (time = 16 hours) − OD450 (time zero), Mean” value (“ΔOD 450 nm = OD450” for short) ([1]; single active at 0.3% w/v) was −0.44, the “No. of replicates showing growth (out of 4)” value ([1]; single active at 0.5% w/v) was 0 and the “Δ OD 590 nm = OD590” value ([1]; single active at 0.5% w/v) was 0.20. The “ΔOD 450 nm = OD450” value ([1]; single active at 0.5% w/v) was 0.23, the “No. of replicates showing growth (out of 4)” value ([1]; single active at […] w/v) was 4 and the “Δ OD 590 nm = OD590” value ([1]; single active at […] w/v) was 0.63. The “ΔOD 450 nm = OD450” value ([1]; single active at […] w/v) was −0.50, the “Log reduction S. aureus ATCC 6538” value (S. aureus ATCC 6538) was −0.15 and the NMBS ([2]; 0.5% w/v alone, S. aureus, 15 s) was 7.34 log CFU/ml. It also gave an MBC ([2]; component alone, against S. aureus, in water) greater than 1.5 % w/v.
